# Test results reported in article PMC9503608, “An Insight into Symmetrical Cyanine Dyes as Promising Selective Antiproliferative Agents in Caco-2 Colorectal Cancer Cells” (Molecules, 2022).
# Like-named read-outs stand apart in the source and are kept apart here.
# What was measured:
# [1] = system: Caco-2 cells; experiment: Cell cycle distribution by propidium iodide staining and flow cytometry; assay type: cell-based, human; conditions: dye 12 and 5-FU 10 µM 72 h, sorbitol 600 mM 24 h, versus untreated cells
# Protocol: (§1) The apoptosis occurrence and influence of the dye 12 on the cell cycle were evaluated using propidium iodide (PI) staining and flow cytometry, as described by Riccardi and Nicolleti. After the near confluency of the culture, trypsinisation, and counting, Caco-2 cells were seeded (2 mL, 3 × 10^4 cells/mL) in 6-well plates. After 48 h of adherence, the cells were treated with the test solutions (3 mL and 5 mL for negative control) and incubated for 72 h. Untreated cells were used as the negative control, and sorbitol and 5-FU [56] were used as positive controls for the apoptosis and cell cycle distribution studies, respectively. After incubation, the supernatant was collected and the cells were washed with PBS and combined with the cells harvested using the trypsin treatment. This cell suspension was maintained on ice and centrifugated, and then the pellet was resuspended in 0.5 mL of PBS. The cells were fixed by adding 4.5 mL of 70% ethanol cooled at −20 °C and were stored at the same temperature. For the cytometry analysis, PBS was added to the fixed cells before centrifugation, and then the ethanolic supernatant was removed. The pellet was resuspended in 0.5 mL of PBS and 0.5 mL of DNA extraction (192 mL of 0.2 M sodium phosphate and 8 mL of […], pH 7.8) was added. After incubation for 5 min, the cells were centrifuged, the supernatant was removed, and the pellet resuspended in 0.3 mL of staining solution (20 µg/mL of PI and 0.2 mg/mL of DNase-free RNase in PBS). Using a FACSCalibur flow cytometer and the 488 nm laser line, a minimum of 20,000 events were recorded. Acquisition and apoptosis analysis was performed using BD CellQuestTM Pro 4.0.2 Software. Cell cycle analysis was performed with ModFit LT 5.0.9 software. To exclude debris and necrotic cells, events with a lower diameter (forward scatter; FCS) and reduced PI fluorescence (FL3) than the hypodiploid apoptotic cells were eliminated. Two independent experiments were performed.
# [2] = system: Caco-2 cells; experiment: Morphological analysis by inverted microscopy; assay type: cell-based, human; conditions: 10 µM, 72 h, 20 or 40× magnification, versus untreated cells
# Protocol: After the near confluency of the culture, trypsinisation, and counting, Caco-2 cells were seeded (3 mL; 3 × 10^4 cells/mL) in 35 mm cell culture dishes with treatment for the tissue culture. Following 48 h of adherence, the cells were treated with the test solutions and incubated for 72 h in an environment protected from light. At every 24 h, cellular morphology was verified in an Olympus CKX41 SF inverted microscope with a 10, 20, or 40× objective, and the analysis was based on comparing the cells with and without treatment. Cell imaging was captured using a DC6V Olympus digital camera coupled to the microscope.
# [3] = MTT cell viability assay, Caco-2; assay type: cell-based, human; conditions: human, 72 h, read-out: SI Caco-2 (selectivity index, cancer versus NHDF)
# Protocol: (§2) Caco-2, MCF-7, PC-3, and NHDF cell lines were obtained from the American Type Culture Collection (ATCC) and maintained in 75 cm^2 culture flasks in a humidified atmosphere at 37 °C with 5% carbon dioxide using a LEEC Culture Safe Precision CO2 Incubator. The culture media was renewed every two to three days. The NHDF cell line was cultured in Roswell Park Memorial Institute (RPMI) medium supplemented with 10% of inactivated fetal bovine serum (FBS), 2 mM of L-glutamine, 10 mM of 4-(2-hydroxyethyl)-1-piperazineethanesulfonic acid (HEPES), 1 mM of sodium pyruvate, and 1% of antibiotic/antimycotic mixture (Ab; 10,000 U/mL of penicillin G, […] of streptomycin, and 25 µg/mL of amphotericin B). The PC-3 cell line was also cultured in RPMI 1640 medium supplemented with 10% inactivated FBS and 1% of an antibiotic mixture (Sp; 10,000 U/mL of penicillin G and […] of streptomycin). The Caco-2 and MCF-7 cell lines were grown in Dulbecco’s Modified Eagle Medium (DMEM). Caco-2 was supplemented with 20% of inactivated FBS and 1% of Sp. On the other hand, the MCF-7 medium was complemented with 10% of inactivated FBS and 1% of Ab. All manipulations were performed in a Labculture Class II A2 Biological Safety Cabinet.
# (§3) After the near confluency of cultures, cells were detached with a solution of 0.125 g/L trypsin and 0.02 g/L ethylenediaminetetracetic acid (EDTA), counted using the trypan blue method, resuspended, and seeded in 96-well culture plates (100 µL, 2 × 10^4 cells/mL). Following 48 h of adherence, cells were treated with the test solutions and incubated for 72 h. This incubation, as well as the solution manipulations, were performed in an environment protected from light. After the incubation, the medium was replaced with a fresh incomplete culture medium (without FBS and Ab or Sp) and MTT solution (5 mg/mL in phosphate buffer saline (PBS)). After additional incubation for 4 h, the MTT medium was removed, formazan crystals were dissolved in DMSO, and the optical density of each well was measured at 570 nm using a microplate spectrophotometer Bio-Rad xMark. Untreated cells were used as a negative control and 5-FU as the positive control. The results were expressed as the relative cell proliferation relative to the negative control cells. […] To determine the IC50 values, Caco-2, MCF-7, PC-3, and NHDF cells were exposed to increasing concentrations between 0.001 and 100 μM.
# [4] = system: Caco-2 colorectal adenocarcinoma cell line; experiment: MTT cell viability assay, Caco-2; assay type: cell-based, human; conditions: Homo sapiens; for IC50: 72 h of incubation, MTT, protected from light; for viability at 10 µM: single concentration of 10 µM, 72 h, mean ± SD, read-out: cell viability percentage in relation with control, Caco-2
# Protocol: as §2, §3
# [5] = system: MCF-7 breast adenocarcinoma cell line; experiment: MTT cell viability assay, MCF-7; assay type: cell-based, human; conditions: Homo sapiens; for viability at 10 µM: single concentration of 10 µM, 72 h, mean ± SD, read-out: cell viability percentage in relation with control, MCF-7
# Protocol: as §2, §3
# [6] = system: PC-3 prostate adenocarcinoma cell line; experiment: MTT cell viability assay, PC-3; assay type: cell-based, human; conditions: for viability at 10 µM: single concentration of 10 µM, mean ± SD, read-out: cell viability percentage in relation with control, PC-3
# Protocol: as §2, §3
# [7] = system: Caco-2 cells; experiment: Apoptosis by propidium iodide staining and flow cytometry; assay type: cell-based, human
# Protocol: as §1
# [8] = system: normal human dermal fibroblasts (NHDF); experiment: MTT cell viability assay, NHDF; assay type: cell-based; conditions: Homo sapiens, NHDF, 72 h of incubation, MTT, protected from light
# Protocol: as §2, §3
# [9] = MTT cell viability assay, NHDF; assay type: cell-based, human; conditions: human, normal human dermal fibroblasts (NHDF), single concentration of 10 µM, 72 h, mean ± SD; read-out: cell viability percentage in relation with control, NHDF
# Protocol: as §2, §3
Structure (SMILES),"IC50 ([4]; Caco-2, 72 h)",melting point,effect on cell cycle distribution [1],"selectivity ratio at 72 h ([3]; Caco-2, Caco-2 versus NHDF)","viability at 10 µM ([4]; Caco-2, 72 h)","viability at 10 µM ([5]; MCF7, 72 h)","viability at 10 µM ([6]; Homo sapiens, 72 h, 72 h)",IC50 ([8]; 72 h),"viability at 72 h, 10 µM [9]",also measured
"O=c1[nH]cc(F)c(=O)[nH]1 [Dye 5-FU, 5-fluorouracil, reference compound]",1700 nM,,significant increase in the rate of Caco-2 cells in the S-phase,3.6,25.7 ± 1.02%,16 ± 1.8%,11.9 ± 2.1%,6170 nM,12.7 ± 3.99%,"morphological changes of Caco-2 cells [2]: cell size increase with an enlarged and well-defined nucleus; IC50 ([5]; MCF7, 72 h of incubation, MTT, protected from light): 1240 nM; IC50 ([6]; Homo sapiens, 72 h of incubation, MTT, protected from light): 1720 nM; SI PC-3 (selectivity index, cancer versus NHDF) ([6]; PC-3 versus NHDF, 72 h): 3.6; increase in apoptotic cells relative to untreated cells ([7]; Caco-2, 10 µM, 72 h): approximately 10%"
"CCN1C(=CC=Cc2[se]c3ccccc3[n+]2CC)[Se]c2ccccc21.[I-] [Dye 16, 3-Ethyl-2-(3-(3-ethylbenzo[d][1,3]selenazol-2(3H)-ylidene)prop-1-en-1-yl)benzo[d][1,3]selenazol-3-ium iodide]",,272 to 273 °C (dec.),,,,,,,4.53 ± 0.39%,"selectivity ratio at 72 h ([3]; Caco-2 versus NHDF): 6.5; IC50 ([4]; Caco-2): 70 nM; viability at 10 µM ([4]; Caco-2): 1.25 ± 0.39%; viability at 10 µM ([5]; MCF7): 1.39 ± 0.68%; viability at 10 µM ([6]; Homo sapiens, 72 h): 3.92 ± 0.75%; IC50 [8]: 480 nM"
"OC[C@@H](O)[C@@H](O)[C@H](O)[C@@H](O)CO [sorbitol, reference compound]",,,did not significantly affect the Caco-2 cell cycle,,,,,,,"apoptosis induced (percent of cells) ([7]; Caco-2, dye 12 10 µM 72 h, sorbitol 600 mM 24 h): about 28%"

# Continued, in another order:
"IC50 ([4]; Caco-2, 72 h)",melting point,Structure (SMILES),effect on cell cycle distribution [1],"selectivity ratio at 72 h ([3]; Caco-2, Caco-2 versus NHDF)","viability at 10 µM ([4]; Caco-2, 72 h)","viability at 10 µM ([5]; MCF7, 72 h)","viability at 10 µM ([6]; Homo sapiens, 72 h, 72 h)",IC50 ([8]; 72 h),"viability at 72 h, 10 µM [9]",also measured
580 nM,240 to 241 °C,"CN1C(=Cc2ccc3ccccc3[n+]2C)C=Cc2ccccc21.[I-] [Dye 13, 1-Methyl-2-((1-methylquinolin-2(1H)-ylidene)methyl)quinolin-1-ium iodide]",,1,7.81 ± 0.51%,11.8 ± 1.89%,7.42 ± 1.27%,590 nM,8.37 ± 2.26%,
680 nM,229 to 231 °C,"CCCN1C=CC(=Cc2cc[n+](CCC)c3ccccc23)c2ccccc21.[I-] [Dye 14, 1-Propyl-4-((1-propylquinolin-4(1H)-ylidene)methyl)quinolin-1-ium iodide]",,1.5,9.84 ± 0.93%,22.9 ± 0.68%,8.03 ± 2.15%,990 nM,1.99 ± 0.25%,
2060 nM,227 to 228 °C,"CCCCCN1C(=CC=C2CCCC(C=Cc3sc4ccccc4[n+]3CCCCC)=C2Cl)Sc2ccccc21.[I-] [Dye 17, 2-(2-(2-Chloro-3-(2-(3-pentylbenzo[d]thiazol-2(3H)-ylidene)ethylidene)cyclohex-1-en-1-yl)vinyl)-3-pentylbenzo[d]thiazol-3-ium iodide]",,0.4,0.24 ± 0.17%,11.2 ± 3.11%,0.43 ± 0.26%,910 nM,2.26 ± 0.1%,
